Experimental data from patent publication US9732091B2, “Tryptophanol-derived oxazoloisoindolinones: small-molecule P53 activators” (UNIVERSIDADE DO PORTO, priority 2013, dated 2017).
Entries after “also recorded” stand apart in the source; their conditions may differ.

Tests used:
human wt p53 = target: T1, human wt p53 (Homo sapiens, UniProt P04637); assay: yeast-based assay, yeast cells expressing human wt p53 (growth by CFU counts, cell cycle, actin Western blot)
T1 construct: expressed in transfected cells
Experimental: FIG. 1 illustrates that SLMP53-1 and SLMP53-2 increase the p53 effects in yeast. Yeast cells expressing human wt p53 and transformed with the empty vector (control yeast) were incubated in selective induction medium in the presence of 0.1-25 μM compound or DMSO only, for 42 hours. (A) Effect of 10 μM SLMP53-1 and SLMP53-2 on the p53-induced yeast growth inhibition. Results are plotted setting as one unit the p53-induced growth inhibition in the presence of DMSO only. Growth was estimated by colony-forming unit (CFU) counts. […] (B) Dose-response curve for SLMP53-1 in yeast cells expressing human p53 and control yeast. Cells were incubated in selective medium with 0.1-25 μM of SLMP53-1 or DMSO only. Results are plotted setting as 100% growth inhibition the number of CFU obtained in the presence of DMSO only. Data are mean±S.E.M. of three independent experiments (*P<0.05; unpaired Student's t-test). (C) Effect of SLMP53-1 and SLMP53-2 on p53-induced S-phase cell cycle arrest in yeast. Cell cycle phases were analyzed by flow cytometry using Sytox Green and quantified using ModFit LT software; quantification of cell cycle phases represent the mean values. (D) Increase of p53-induced actin protein expression levels by SLMP53-1 and SLMP53-2 in yeast expressing p53. Western Blot band intensity was quantified using Pgk1p as loading control (with Bio-Profile Bio-1D++ software).
Using a yeast-based screening approach, the chiral compounds SLMP53-1 and SLMP53-2 were identified as potential activators of wt p53, from a chemical library of tryptophanol-derived oxazoloisoindolinones with general formula (I) shown in FIG. 1, wherein X, R^1, R^2, R^3, R^4, R^5, R^6, R^7, R^8, R^9 and R^10 are as defined herein, as well as their stereoisomers, enantiomers, ra.cemates, tautomers thereof or mixtures thereof; or a pharmaceutically acceptable salt, solvate or prodrug thereof. In the yeast cell model, compounds SLMP53-1 and SLMP53-2 increased the previously reported (Coutinho et al. FEBS Lett. 2009, 583, 3582-3588) p53-induced growth inhibition (FIGS. 1A and B) and S-phase cell cycle arrest (FIG. 1C).

HCT116 p53^−/− = assay: SRB growth inhibition assay in HCT116 p53^−/− colon carcinoma cells; format: cell-based, human; settings: Homo sapiens, HCT-116, 48 hours incubation, mean±S.E.M.
Experimental: Tumor cells were plated at 5.0×10^3 cells/well in 96-well plates and incubated for 24 hours. Cells were then exposed to serial dilutions of SLMP53-1, CP-31398 or PRIMA-1 (from 1.85 to 150 μM). The effect of the compounds was analyzed following 48 hours incubation, using the sulforhodamine B (SRB) assay. The solvent DMSO corresponding to the maximum concentration used in these assays (0.025%) was included as control. The GI50 value, the concentration of compound that causes 50% growth inhibition, was calculated for the tested compounds. Results are the mean±S.E.M. of three independent experiments.

[1] = test system: MDA-MB-231 breast tumor cells; assay: Western blot of p53 and p53-target proteins, PARP cleavage, MDA-MB-231; format: cell-based, human; settings: 16.6 μM (GI50), 24/48 hours
Source text: FIG. 7 illustrates that SLMP53-1 increases the levels of p53 and of proteins encoded by p53-target genes in MDA-MB-231 breast tumor cells.

HCT116 p53^+/+ cells [2] = assay: cell cycle analysis by flow cytometry (propidium iodide), HCT116 p53^+/+; format: cell-based, human; settings: double GI50, 24 hours
Experimental: FIG. 3 illustrates the effect of SLMP53-1 on cell cycle progression of HCT116 p53^+/+ cells. Cell cycle phases were analyzed by flow cytometry using propidium iodide and quantified using ModFit LT software (Verity Software House Inc., Topsham, USA). Effect of compounds (double GI50) was analyzed after 24 hours treatment. Histograms represent one of two independent experiments; quantification of cell cycle phases represents the mean±S.E.M. of two independent experiments.

HCT116 p53^+/+ cells [3] = assay: apoptosis by flow cytometry (FITC-Annexin V and propidium iodide), HCT116 p53^+/+; format: cell-based, human; settings: GI50 and double GI50, 24 hours
Experimental: Apoptosis was analyzed by flow cytometry using FITC-Annexin V and propidium iodide. The effect of compounds was analyzed after 24 hours treatment using the concentration of GI50 and double GI50. Histograms represent one of two independent experiments; quantification of cells in apoptosis represents the mean±S.E.M. of two independent experiments.

[4] = test system: MDA-MB-231 cells (mutant p53 R280K); assay: sensitization to etoposide and doxorubicin, SRB assay, MDA-MB-231; format: cell-based, human
Experimental: FIG. 9 illustrates that SLMP53-1 sensitizes breast cancer MDA-MB-231 cells to the effects of etoposide and doxorubicin. The MDA-MB-231 tumor cells (with the mutant p53 R280K) were treated for 48 hours with increasing concentrations of etoposide ([…] to 6.00 μM) or doxorubicin (187.5 to 750.0 nM) in the presence of a very low concentration (between GI5 to GI10; 4 μM) of SLMP53-1 or with DMSO only. Effect of compounds on cell growth was analyzed following 48 hours incubation, using the sulforhodamine B (SRB) assay. Results are mean±SEM of three to four independent experiments.
It was also investigated if SLMP53-1 increased the sensitivity of MDA-MB-231 cells to the effects of various concentrations of etoposide (0.38 to 6.00 μM) and doxorubicin (187.5 to 750.0 nM). For that, a low concentration of SLMP53-1 (approximately the GI5 to GI10 concentration; 4 μM; without significant anti-proliferative effects on tumor cell lines) was used. […] Particularly, for 0.38 μM etoposide (for which an anti-proliferative effect is not observed), a 25% decrease of tumor cell growth was obtained in the presence of 4 μM of SLMP53-1.

T1 sequence (P04637 whole entry): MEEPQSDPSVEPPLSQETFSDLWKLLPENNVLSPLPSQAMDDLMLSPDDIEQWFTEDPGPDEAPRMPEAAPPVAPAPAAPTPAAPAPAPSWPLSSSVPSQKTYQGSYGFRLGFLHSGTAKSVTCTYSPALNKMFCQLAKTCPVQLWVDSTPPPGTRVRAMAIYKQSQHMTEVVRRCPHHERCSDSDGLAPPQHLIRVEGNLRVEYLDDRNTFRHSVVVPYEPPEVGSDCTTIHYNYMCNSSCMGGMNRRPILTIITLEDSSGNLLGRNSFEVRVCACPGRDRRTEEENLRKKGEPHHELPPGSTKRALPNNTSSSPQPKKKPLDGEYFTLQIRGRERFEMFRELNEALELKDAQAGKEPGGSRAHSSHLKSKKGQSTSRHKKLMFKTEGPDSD

Question: For `C[C@]12OC[C@H](Cc3c[nH]c4ccccc34)N1C(=O)c1ccccc12` [SLMP53-1], which p53-induced growth inhibition (human wt p53; yeast expressing human wt p53, 10 μM, 42 hours, vs DMSO only) is on record?
Answer: increased

Question: And the “p53-induced S-phase cell cycle arrest” value (human wt p53; yeast expressing human wt p53, flow cytometry)?
Answer: increased

Question: And the actin protein levels (human wt p53; yeast expressing p53, Western blot, vs DMSO only)?
Answer: increased the actin protein levels

Question: And the GI50 (HCT116 p53^−/−)?
Answer: 34 ± 3.5 µM

Question: What about the PARP cleavage [1] of the same molecule?
Answer: lead to PARP cleavage

Question: And the “levels of p53 and of BAX, PUMA and p21” value [1]?
Answer: increased

Question: And the cell cycle progression (HCT116 p53^+/+ cells [2])?
Answer: G0/G1-phase cell arrest

Question: What about the apoptosis (HCT116 p53^+/+ cells [3]) of the same molecule?
Answer: induces early and late apoptosis; also recorded: apoptotic cell death

Question: What about the “decrease of tumor cell growth” value ([4]; 0.38 μM etoposide in the presence of 4 μM of SLMP53-1) of the same molecule?
Answer: 25%

Question: And the etoposide/doxorubicin-induced growth inhibition ([4]; 4 μM SLMP53-1, three concentrations tested, 48 hours)?
Answer: increased
